Legend:
[1] = system: CSF-infiltrating CD4+ T cells from MS patients; test: Reactivity of CSF-infiltrating CD4+ T cells by proliferation and/or IFN-γ release taken together (responder classification, comparison of readouts); settings: of 105 MS patients; main or only reactivity in proliferation and/or IFN-γ release
Description: PBMCs were freshly isolated using Ficoll (Eurobio, Germany) density gradient centrifugation. CSF-infiltrating CD4+ T cells were expanded with PHA in a single round of stimulation using a previously reported protocol aimed to reduce TCR repertoire bias (Planas et al., 2008, Sci Transl Med, 10(462):eaat4301). 6×10^4 PHA-expanded CSF-infiltrating CD4^+ T cells were seeded in quadruplicate with 2×10^5 irradiated autologous PBMCs as antigen presenting cells and stimulated with peptides (Table 2) at a final concentration of 10 μM and with a T Cell Activation Kit (anti-CD3, anti-CD28, anti-CD2 beads) (Miltenyi Biotec) as positive control.
(§1) Proliferation was measured 72 h after stimulation using 3H-thymidine (Hartmann Analytic, Braunschweig, Germany) as previously reported (Planas et al., 2018). The stimulation index of single wells (SI) was calculated as follows: SI=(cpm well with peptide)/(Mean cpm wells without peptide). A well was considered positive if SI≥2.
(§2) Release of IFN-γ was measured using the ELISA MAX™ Deluxe Set Human IFN-γ (Biolegend, San Diego, CA, USA) according to the manufacturer's instructions. A well was considered positive if IFN-γ≥20 pg/ml and a patient was considered positive for a peptide if the mean IFN-γ of the four wells was ≥20 pg/ml and at least 3 of the 4 wells were positive.

[2] = system: CSF-infiltrating CD4+ T cells from MS patients; settings: peptide 10 μM; 105 MS patients, quadruplicates; well positive if IFN-γ≥20 pg/ml
Description: 6×10^4 PHA-expanded CSF-infiltrating CD4^+ T cells were seeded in quadruplicate with 2×10^5 irradiated autologous PBMCs as antigen presenting cells and stimulated with peptides (Table 2) at a final concentration of 10 μM and with a T Cell Activation Kit (anti-CD3, anti-CD28, anti-CD2 beads) (Miltenyi Biotec) as positive control.
as §2

[3] = system: CSF-infiltrating CD4+ T cells from MS patients; settings: peptide 10 μM, 105 MS patients; for Positive wells % Proliferation: quadruplicates (420 wells per peptide), well positive if SI≥2, 72 h; for Positive patients % Proliferation: patient positive if mean SI of four wells ≥2 and at least 3 of four wells SI≥2
Description: CSF-infiltrating CD4+ T cells were expanded with PHA in a single round of stimulation using a previously reported protocol aimed to reduce TCR repertoire bias (Planas et al., 2008, Sci Transl Med, 10(462):eaat4301). 6×10^4 PHA-expanded CSF-infiltrating CD4^+ T cells were seeded in quadruplicate with 2×10^5 irradiated autologous PBMCs as antigen presenting cells and stimulated with peptides (Table 2) at a final concentration of 10 μM and with a T Cell Activation Kit (anti-CD3, anti-CD28, anti-CD2 beads) (Miltenyi Biotec) as positive control.
as §1

In the case of “MEVGWYRPPFSRVVHLYRNGK (listed as Homo sapiens) [MOG (35-55)]”, the “Patients classified as responders to the peptide(s)” value [1] was 10.4%, the “Positive wells % IFNγ release” value [2] was 13.49% and the “Positive wells % Proliferation” value [3] was 3.61%. For the same sequence, the “Positive patients % Proliferation” value [3] was 1.92%.

“FRFTPFKQAVKETCA (listed as Homo sapiens) [GDP-L-FS (296-310)]” was tested, and the “Positive wells % IFNγ release” value [2] was 12.65%, the “Positive wells % Proliferation” value [3] was 6.43% and the “Positive patients % Proliferation” value [3] was 4.76%.

With “EEDEVSIKEAAEAVV (listed as Homo sapiens) [GDP-L-FS (246-260)]” the “Positive wells % IFNγ release” value [2] was 8.85%, the “Positive wells % Proliferation” value [3] was 6.90% and the “Positive patients % Proliferation” value [3] was 4.76%.

“KYLATASTMDHARHGFLPRH (listed as Homo sapiens) [MBP (13-32)]” was tested, and the “Positive wells % IFNγ release” value [2] was 4.34%, the “Positive wells % Proliferation” value [3] was 0.72% and the “Positive patients % Proliferation” value [3] was 0.00%.

“PHNSNFGYSYAKRMI (listed as Homo sapiens) [GDP-L-FS (136-150)]” was tested, and the “Positive wells % IFNγ release” value [2] was 8.35%, the “Positive wells % Proliferation” value [3] was 7.14% and the “Positive patients % Proliferation” value [3] was 5.71%.

“TAQTRALFEKVQPTH (listed as Homo sapiens) [GDP-L-FS (51-65)]” was tested, and the “Positive wells % IFNγ release” value [2] was 7.16%, the “Positive wells % Proliferation” value [3] was 5.48% and the “Positive patients % Proliferation” value [3] was 3.80%.

“LSRFSWGAEGQRPGFGYGG (listed as Homo sapiens) [MBP (111-129)]” was tested, and the “Positive wells % IFNγ release” value [2] was 6.75%, the “Positive wells % Proliferation” value [3] was 1.20% and the “Positive patients % Proliferation” value [3] was 0.96%.

“YGCTFTAVIPTNVFG (listed as Homo sapiens) [GDP-L-FS (161-175)]” was tested, and the “Positive wells % IFNγ release” value [2] was 6.92%, the “Positive wells % Proliferation” value [3] was 7.38% and the “Positive patients % Proliferation” value [3] was 6.66%.

For “GQFRVIGPRHPIRALVGDEV (listed as Homo sapiens) [MOG (1-20)]”, the “Positive wells % IFNγ release” value [2] was 4.58%, the “Positive wells % Proliferation” value [3] was 1.20% and the “Positive patients % Proliferation” value [3] was 0.00%.

In the case of “AQGTLSKIFKLGGRDSRSGSPMARR (listed as Homo sapiens) [MBP (146-170)]”, the “Positive wells % IFNγ release” value [2] was 3.86%, the “Positive wells % Proliferation” value [3] was 0.72% and the “Positive patients % Proliferation” value [3] was 0.00%.

“HCLGKWLGHPDKFVGI (listed as Homo sapiens) [PLP (139-154)]” was tested, and the “Positive wells % IFNγ release” value [2] was 3.86%, the “Positive wells % Proliferation” value [3] was 1.92% and the “Positive patients % Proliferation” value [3] was 0.96%.

Reference: patent publication US20240329043A1, “METHOD FOR STRATIFICATION AND TREATMENT OF MULTIPLE SCLEROSIS” (Universität Zurich, priority 2021, published 2024)
